Measured values: patent US10695446B2, “Composition and method for detecting hypoxia” (Vanderbilt University, priority 2015, dated 2020)
Counter-ions that a name gives are not always drawn.

Tests used:
retina of RA mice = test: Electroretinography (ERG) measurements; assay type: in vivo, mouse; conditions: 100 mg/kg systemic, dark-adapted mice, 7 days post administration, various flash intensities
Method: ERG measurements were performed according to previously published methods.^32,33 Briefly, ERG analysis was performed on mice injected with HYPDX-4 (100 mg/kg) at one week post-injection. Animals were dark adapted overnight, anesthetized with ketamine/xylazine, dilated with 1% tropicamide, and placed on a warm platform within the Ganzfeld dome of a Diagnosys LLC Espion Electrophysiology system (Lowell, Mass., USA). Mice were exposed to flashes of light ranging from −4 to 2 log cd·s/m^2 and the amplitudes of a-wave and b-wave were measured from baseline to peak. The amplitude of the a-wave and b-wave were plotted as a function of luminance.

[1] = system: retinal hypoxia, oxygen-induced retinopathy (OIR) mice; test: Imaging of retinal hypoxia in the mouse OIR model; assay type: in vivo
Method: Mouse pups and their dams were placed in 75% oxygen from P7 to P12 according to the OIR oxygen treatment protocol.^27 On P12, litters were removed to room air and after 2 hours, HYPDX-4 (60 mg/kg in PBS) was administered by intraperitoneal injection. Twenty-four hours post-injection, in vivo HYPDX-4-dependent fluorescence imaging was performed. Briefly, mice were anesthetized with ketamine/xylazine, eyes were dilated with 1% tropicamide and placed on a warm platform, and fluorescent and bright field fundus images were acquired using the Micron IV retinal-imaging system (Phoenix Research Laboratories; Pleasanton, Calif.). Then, ex vivo imaging of HYPDX-4 dependent fluorescence was performed. The mice were sacrificed, enucleated, and the globes were fixed in 10% neutral buffered formalin (NBF). Retinas were dissected and stained directly with Alexa Fluor 647-conjugated isolectin B4 then flat-mounted on a microscope slide with Prolong Gold mounting medium (Life Technologies, Grand Island, N.Y.). Images were captured using an epifluorescence ‘Nikon Eclipse Ti-E’ inverted microscope (Melville, N.Y.).
Some mice received intraperitoneal injections of pimonidazole hydrochloride at a concentration of 60 mg/kg body weight two hours after removal to the room air; they were sacrificed and enucleated one hour later. The globes were fixed in 10% NBF for 2 hours; retinas were dissected and washed with tris-buffered saline (TBS), then they were blocked/permeabilized in 10% donkey serum with 1% Triton X-100/0.05% Tween 20 in TBS for 6 hours, and stained with an antibody against pimonidazole-adducts followed by the secondary anti-rabbit IgG conjugated to Alexa Fluor 647- and Alexa Fluor 488-conjugated isolectin B4. The retinas were mounted on microscope slides with Prolong Gold mounting medium. Ex vivo images were captured using an epifluorescence ‘Nikon Eclipse Ti-E’ inverted microscope.

MIO-M1 cells [2] = test: In vitro hypoxia-induced HYPDX-4-dependent fluorescence assay, MIO-M1 cells; assay type: cell-based, human; conditions: MIO-M1, 0.1% oxygen, 10 μM to 100 μM
Method: (§1) ARPE-19 cells were cultured in DMEM/F12 supplemented with 10% Fetal Bovine Serum, 1× GlutaMAX, and 1× Gentamicin/Amphotericin B. MIO-M1 and R28 cells were cultured in low glucose DMEM supplemented with 10% Fetal Bovine Serum, 1× GlutaMAX, and 1× Penicillin-Streptomycin. Cells were maintained in a humidified environment with 5% CO2 at 37° C. unless otherwise noted. The cells were cultured in 96 microwell plates, with HYPDX-4 concentrations ranging from 10 to 100 μM in complete medium, or 100 μM pimonidazole hydrochloride in complete medium. To establish a hypoxic environment, the cells were placed into a humidified hypoxic chamber and flushed with a mixture of 95% N2 and 5% CO2, at a flow rate of 20 L/min for 5 min according to manufacturer instructions. The chamber was clamped and placed at 37° C. for the duration of the treatment. The oxygen level was monitored using the Traceable™ Dissolved Oxygen Meter Pen (Fisher Scientific; Pittsburg, Pa.). […]
(§2) ARPE-19, MIO-M1 were seeded at 20,000 and R28 at 15,000 cells per well, respectively, in a 96-well black plate with a clear bottom. […] Fluorescence intensity was measured ([…]: 490 nm, Emission: 520 nm) using a microplate reader (Biotek; Winooski, Vt.).

R28 cells [3] = test: In vitro hypoxia-induced HYPDX-4-dependent fluorescence assay, R28 cells; assay type: cell-based, rat
Method: as §1, §2

R28 cells [4] = test: In vitro imaging of R28 cells using HYPDX-4; assay type: cell-based, rat
Method: R28 cells were seeded at a density of 45,000 cells per well in 3 wells of 4-well chamber slides. When cells were 90% confluent, 2 wells were treated with HYPDX-4 in complete medium, and one well was treated with pimonidazole hydrochloride diluted in complete medium. The cells were cultured in hypoxia or normoxia for 4 hours. Cells were washed 3 times with HBSS, fixed with 10% neutral buffered formalin (NBF) for 10 minutes at room temperature, washed 3 times with TBS and mounted with Prolong Gold with DAPI mounting media. Pimonidazole-adducts were immunostained according to manufacturer's protocol. HYPDX-4 dependent fluorescence images were taken using an epifluorescence microscope.

ARPE-19 cells = test: In vitro hypoxia-induced HYPDX-4-dependent fluorescence assay, ARPE-19 cells; assay type: cell-based, human; conditions: ARPE-19, 0.1% oxygen, 10 μM to 100 μM
Method: as §1, §2

R28 cells [5] = test: Cell viability assay (BrdU incorporation), R28 cells; assay type: cell-based, rat; conditions: R28, 0-100 μM, 24 h
Method: (§3) Retinal cell-lines were treated with HYPDX-4 (100 μM) and the viability was measured using the bromodeoxyUridine (BrdU) incorporation assay according to the manufacturers protocol. Briefly, retinal cells were seeded in a 96-well plate for twenty four hours and serum starved for 6 hours. Then, cells were treated with HYPDX-4 and vehicle controls diluted in complete media and allowed to incubate for 24 h. Four hours prior to the end of the incubation, BrdU was added at a concentration of 10 μM and incorporation of BrdU was quantified by ELISA with the BrdU cell viability ELISA kit (Exalpha Biologicals; Shirley, Mass.).

[6] = Solubility in aqueous solvents, buffers and cell-culture medium; assay type: physicochemical; conditions: neat water or saline, PBS, DMEM with 10% FBS; read-out: soluble at a concentration
[7] = system: retinal hypoxia, laser-induced retinal vein occlusion (RVO) mice; test: Imaging of retinal hypoxia in the mouse RVO model; assay type: in vivo; conditions: for pattern of retinal hypoxia image in RVO retina: HYPDX-4-dependent imaging versus pimonidazole-adduct immunostaining, 60 mg/kg i.p.
Method: Laser-induced retinal vein occlusion was performed as previously described.^31 Briefly, C57BL/6 female mice were anesthetized by intraperitoneal injection of ketamine/xylazine and the eyes were dilated using 1% tropicamide. A phosphate buffered solution of 39.31 mM rose bengal (4,5,6,7-tetrachloro-2′,4′,5′,7′-tetraiodo-fluorescein disodium salt, certified purity, 95%; Sigma, St. Louis, Mo.) was sterilized by passage through a 0.22-μm filter, and tail vein injected at a dose of 40 mg/kg. An argon laser photocoagulator (green light) mounted on a slit-lamp (Space Coast Laser Inc. Palm Bay, Fla.) was used to create retinal vein-occlusion (50-μm spot size, 1-second duration, 50 mW). Three laser applications were required to completely stop the blood flow as determined by observing the fundus image with a slit-lamp microscope. In each fundus, only one or two veins was/were photocoagulated to create retinal ischemia. Two hours post-RVO, mice were divided into two groups and received intraperitoneal injection of the HYPDX-4 (60 mg/kg body weight) or pimonidazole hydrochloride (60 mg/kg body weight). Twenty-two hours post-injection of HYPDX-4, in vivo HYPDX-4 dependent fluorescence imaging was performed. The mice were anesthetized with ketamine/xylazine, dilated with 1% tropicamide, and placed on a warm platform; TRITC-Dextran 500 (Sigma, St. Louis, Mo.) was injected systemically at a dose of 20 mg/kg; and fluorescent and bright field fundus images were acquired using the Micron IV retinal-imaging system. Mice were sacrificed, enucleated and the globes were fixed in 10% NBF. HYPDX-4-dependent fluorescence was imaged ex vivo as previously described in the OIR section. For the pimonidazole hydrochloride-injected group, the animals were sacrificed one hour after injection, enucleated and the globes were fixed in 10% NBF. The retinas were processes and ex vivo images were captured as described above for mouse OIR.

MIO-M1 cells [8] = test: Cell viability assay (BrdU incorporation), MIO-M1 cells; assay type: cell-based, human; conditions: MIO-M1, 0-100 μM, 24 h
Method: as §3

[9] = system: retinal cross sections from RA mice; test: TUNEL assay in retinal cross sections; assay type: in vivo, mouse; conditions: retinal cross sections from treated mice, DNase I positive control
Method: TUNEL assays were performed using Click-iT in situ apoptosis detection kit (Life Technology, USA). The mouse eyes were enucleated and fixed by immersing in 10% NBF for 25 minutes at 4° C. Then, they were fresh frozen in 30% sucrose and embedded in TissueTec OCT for cryosectioning (7 μm sections). The retinal cross-sections were then stained for fragmented DNA by incorporating alkyne-modified EdUTP nucleotide followed by detection with Alexafluor 647 azide in apoptotic cells. Retinal cross-sections were treated with DNase I as the positive control.

[10] = In vitro stability (photostability) in solution, kinetic fluorescence; assay type: physicochemical; conditions: phosphate buffer, 100 nM, 37° C., ex 490 nm / em 520 nm
Method: HYPDX-4 was dissolved in phosphate buffer at a concentration of 100 nM and fluorescence was monitored at excitation maximum 490 nm and emission at 520 nm.

[11] = system: human Müller cells (MIO-M1); test: Pimonidazole-adduct immunodetection of hypoxia in MIO-M1 cells; assay type: cell-based; conditions: MIO-M1, 100 μM, 4 hours
Method: ARPE-19 cells were cultured in DMEM/F12 supplemented with 10% Fetal Bovine Serum, 1× GlutaMAX, and 1× Gentamicin/Amphotericin B. MIO-M1 and R28 cells were cultured in low glucose DMEM supplemented with 10% Fetal Bovine Serum, 1× GlutaMAX, and 1× Penicillin-Streptomycin. Cells were maintained in a humidified environment with 5% CO2 at 37° C. unless otherwise noted. The cells were cultured in 96 microwell plates, with HYPDX-4 concentrations ranging from 10 to 100 μM in complete medium, or 100 μM pimonidazole hydrochloride in complete medium. To establish a hypoxic environment, the cells were placed into a humidified hypoxic chamber and flushed with a mixture of 95% N2 and 5% CO2, at a flow rate of 20 L/min for 5 min according to manufacturer instructions. The chamber was clamped and placed at 37° C. for the duration of the treatment. The oxygen level was monitored using the Traceable™ Dissolved Oxygen Meter Pen (Fisher Scientific; Pittsburg, Pa.). To confirm induction of hypoxia, cells were treated with 100 μM pimonidazole hydrochloride diluted in complete medium, subjected to hypoxia or normoxia for 4 hours and immunostained for pimonidazole-adducts according to manufacturer's protocol.

Method for physchem: A mixture of Octanol (500 uL) and water (500 uL) was added to HYPDX-4 (173 μg), or Pimonidazole Free base (742 μg) or Pimonidazole HCl (1 mL, 50 mg/mL) in an eppendorf tube and gently mixed in a rotator for 2 days. The aqueous and octanol layers were separated and the Optical Density (OD) was measured in microplate spectrophotometer instrument. The amount of HYPDX-4, Pimonidazole Free base and Pimonidazole HCl was calculated from the standard curve.

With CCN1/C(=C/C=C/C=C/C2=[N+](CCCCS(=O)(=O)[O-])c3ccc4ccccc4c3C2(C)C)C(C)(C)c2cc(CC(=O)NCC3CCN(CC(O)Cn4ccnc4[N+](=O)[O-])CC3)ccc21 (stereo not drawn) [HYPDX-4] the “ERG mean a-wave amplitudes versus vehicle (PBS) and sodium fluorescein” value (retina of RA mice) was “no significant changes in mean a-wave amplitudes”, the “ERG mean b-wave amplitudes versus vehicle (PBS) and sodium fluorescein” value (retina of RA mice) was “no significant changes in mean b-wave amplitudes” and the “HYPDX-4-dependent fluorescence in OIR retina” value ([1]; OIR pups, 60 mg/kg i.p. on P12, imaging 24 hours post-injection, central avascular retina) was “detected in vivo as well as ex vivo”. For the same molecule, the “HYPDX-4 dependent fluorescence in room air control retina” value ([1]; age matched RA (P13) control pups, same treatment) was “undetectable”, the “retinal layers showing HYPDX-4-dependent fluorescence (hypoxia), cross sections” value ([1]; ex vivo retinal transverse sections from OIR pups) was “inner plexiform and inner nuclear layers” and the “HYPDX-4 dependent fluorescence, dose dependence” value (MIO-M1 cells [2]) was “optimal signal to noise ratios at the 100 μM dose”. The “HYPDX-4-dependent fluorescence versus oxygen concentration” value (R28 cells [3]; 100 μM, oxygen 0.1% to 20.9%, 4 hours) was “maximal at 0.1% oxygen”, the “HYPDX-4 dependent fluorescence, dose dependence” value (R28 cells [3]; R28, 0.1% oxygen, 10 μM to 100 μM) was “optimal signal to noise ratios at the 100 μM dose” and the “cellular fluorescence imaging, hypoxic cells” value (R28 cells [4]; R28, 100 μM, 0.1% oxygen, 4 hours) was “Hypoxia-specific, HYPDX-4-dependent fluorescence activity”. The “cellular fluorescence imaging, normoxic cells” value (R28 cells [4]; R28, normoxia) was “Minimal”, the “HYPDX-4 dependent fluorescence, dose dependence” value (ARPE-19 cells) was “optimal signal to noise ratios at the 100 μM dose” and the “cell viability (BrdU incorporation)” value (R28 cells [5]) was “did not affect cell viability”. For the same molecule, the solubility [6] was no less than 100 µM, the “HYPDX-4-dependent fluorescence in RVO retina” value ([7]; 60 mg/kg i.p. two hours after occlusion, imaging 22 hours post-injection) was “detected downstream and laterally from the occlusion” and the “pattern of retinal hypoxia image in RVO retina” value [7] was “more confluent image of retinal hypoxia”. The “cell viability (BrdU incorporation)” value (MIO-M1 cells [8]) was “did not affect cell viability”, the logP at 2 days (physchem) was -2.58 and the “retinal cell apoptosis (TUNEL)” value [9] was “No apoptosis was observed”. The “photostability in solution, duration” value [10] was “at least 24 hours”.

For O=[N+]([O-])c1nccn1CC(O)CN1CCCCC1 (stereo not drawn) [Pimonidazole HCl, reference compound], the “pimonidazole-adduct fluorescence, hypoxic cells” value ([11]; hypoxia) was “Significant fluorescence enhancement”, the “pimonidazole-adduct fluorescence, normoxic cells” value ([11]; normoxia) was “minimal fluorescence signal” and the “pimonidazole immunostaining of retinal hypoxia in OIR pups” value ([1]; 60 mg/kg i.p., ex vivo, sacrificed one hour later) was “confirmed”. For the same molecule, the “pattern of retinal hypoxia image in RVO retina” value [7] was “patchy” and the logP at 2 days (physchem) was -2.06.
